In ChEMBL document CHEMBL5212743, “Selectivity Literature for EUbOPEN Chemogenomics Library wave 3” (2023):

Columns and labels:
[1] = biological target: T1, Gamma-aminobutyric acid receptor subunit alpha-1 (Homo sapiens) (UniProt P14867); experiment: (§1) Selectivity interaction (GPCR panel (PDSP screen)) EUB0000334a GABRA1; conditions: at 10 µM
T1 sequence (whole entry): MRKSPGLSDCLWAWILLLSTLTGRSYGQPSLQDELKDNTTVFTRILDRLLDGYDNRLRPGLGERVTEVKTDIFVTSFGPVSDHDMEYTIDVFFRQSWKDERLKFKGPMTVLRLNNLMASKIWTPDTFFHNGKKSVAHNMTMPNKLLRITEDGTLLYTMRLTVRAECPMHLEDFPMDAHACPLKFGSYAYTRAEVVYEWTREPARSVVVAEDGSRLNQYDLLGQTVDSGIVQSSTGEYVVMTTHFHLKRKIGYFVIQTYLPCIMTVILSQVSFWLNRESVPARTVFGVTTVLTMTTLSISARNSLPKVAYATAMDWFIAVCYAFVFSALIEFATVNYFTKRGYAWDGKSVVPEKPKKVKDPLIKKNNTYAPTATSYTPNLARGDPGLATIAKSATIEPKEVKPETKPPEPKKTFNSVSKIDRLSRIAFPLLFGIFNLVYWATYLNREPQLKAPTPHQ

[2] = biological target: T1, Gamma-aminobutyric acid receptor subunit alpha-1 (Homo sapiens); experiment: as §1; conditions: at 10 µM; remark: listed apart in the source
[3] = biological target: Rho-associated protein kinase 1 (Homo sapiens) (UniProt Q13464); experiment: Selectivity interaction (KinomeScan (DiscoverX)) EUB0000334a ROCK1; conditions: at 1 µM
[4] = biological target: Dual specificity tyrosine-phosphorylation-regulated kinase 1B (Homo sapiens, UniProt Q9Y463); experiment: Selectivity interaction (KinomeScan (DiscoverX)) EUB0000334a DYRK1B; conditions: at 1 µM
[5] = biological target: Histone-lysine N-methyltransferase NSD3 (Homo sapiens) (UniProt Q9BZ95); experiment: Selectivity interaction (Methyltransferase panel) EUB0000198b NSD3; conditions: at 10 µM
[6] = biological target: Tyrosine-protein kinase ABL1 (Homo sapiens, UniProt P00519); experiment: Selectivity interaction (HotSpot assay platform (Reaction Biology)) EUB0000632a ABL1; conditions: at 1 µM
[7] = biological target: Vascular endothelial growth factor receptor 2 (Homo sapiens, UniProt P35968); experiment: Selectivity interaction (HotSpot assay platform (Reaction Biology)) EUB0000632a KDR; conditions: at 1 µM
[8] = biological target: Protein-tyrosine kinase 6 (Homo sapiens) (UniProt Q13882); experiment: Selectivity interaction (HotSpot assay platform (Reaction Biology)) EUB0000632a PTK6; conditions: at 1 µM
[9] = biological target: Tyrosine-protein kinase Fyn (Homo sapiens, UniProt P06241); experiment: Selectivity interaction (HotSpot assay platform (Reaction Biology)) EUB0000632a FYN; conditions: at 1 µM
[10] = test system: Platelet-derived growth factor receptor alpha (Homo sapiens), P16234 [V561D]; experiment: Selectivity interaction (Kinase Profiler (Millipore)) EUB0000603a PDGFRA; conditions: at 10 µM
[11] = biological target: Ribosomal protein S6 kinase alpha-3 (Homo sapiens) (UniProt P51812); conditions: at 10 µM
[12] = biological target: Serine/threonine-protein kinase pim-1 (Homo sapiens, UniProt P11309); experiment: Selectivity interaction (Kinase Profiler (Millipore)) EUB0000603a PIM1; conditions: at 10 µM
[13] = biological target: Serine/threonine-protein kinase N2 (Homo sapiens) (UniProt Q16513); conditions: at 10 µM
[14] = biological target: Ribosomal protein S6 kinase alpha-6 (Homo sapiens) (UniProt Q9UK32); conditions: at 10 µM
[15] = biological target: Protein arginine N-methyltransferase 7 (Homo sapiens) (UniProt Q9NVM4); experiment: Selectivity interaction (Methyltransferase panel) EUB0000226b PRMT7; conditions: at 10 µM
Sequence of Protein arginine N-methyltransferase 7 (Homo sapiens) (Q9NVM4 whole entry): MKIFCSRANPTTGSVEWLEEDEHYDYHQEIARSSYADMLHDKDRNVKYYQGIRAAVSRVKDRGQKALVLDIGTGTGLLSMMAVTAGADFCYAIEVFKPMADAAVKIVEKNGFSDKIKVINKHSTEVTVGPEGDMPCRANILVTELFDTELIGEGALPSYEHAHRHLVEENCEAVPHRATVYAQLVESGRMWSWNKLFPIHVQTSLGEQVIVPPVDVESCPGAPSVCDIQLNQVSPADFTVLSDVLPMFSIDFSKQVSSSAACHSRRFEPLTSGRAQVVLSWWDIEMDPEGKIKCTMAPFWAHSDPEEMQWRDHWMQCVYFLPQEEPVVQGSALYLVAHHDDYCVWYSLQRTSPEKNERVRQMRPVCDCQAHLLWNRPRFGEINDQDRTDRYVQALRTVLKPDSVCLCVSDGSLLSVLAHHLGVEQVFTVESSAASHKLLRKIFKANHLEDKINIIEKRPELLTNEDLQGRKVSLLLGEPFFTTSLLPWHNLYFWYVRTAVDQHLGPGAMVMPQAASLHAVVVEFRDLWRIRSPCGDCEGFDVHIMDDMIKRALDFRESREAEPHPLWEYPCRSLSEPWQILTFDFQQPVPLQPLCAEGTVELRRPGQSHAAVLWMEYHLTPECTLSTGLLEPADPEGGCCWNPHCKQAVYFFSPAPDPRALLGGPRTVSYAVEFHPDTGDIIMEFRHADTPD

Sequence of Histone-lysine N-methyltransferase NSD3 (Homo sapiens) (Q9BZ95 whole entry): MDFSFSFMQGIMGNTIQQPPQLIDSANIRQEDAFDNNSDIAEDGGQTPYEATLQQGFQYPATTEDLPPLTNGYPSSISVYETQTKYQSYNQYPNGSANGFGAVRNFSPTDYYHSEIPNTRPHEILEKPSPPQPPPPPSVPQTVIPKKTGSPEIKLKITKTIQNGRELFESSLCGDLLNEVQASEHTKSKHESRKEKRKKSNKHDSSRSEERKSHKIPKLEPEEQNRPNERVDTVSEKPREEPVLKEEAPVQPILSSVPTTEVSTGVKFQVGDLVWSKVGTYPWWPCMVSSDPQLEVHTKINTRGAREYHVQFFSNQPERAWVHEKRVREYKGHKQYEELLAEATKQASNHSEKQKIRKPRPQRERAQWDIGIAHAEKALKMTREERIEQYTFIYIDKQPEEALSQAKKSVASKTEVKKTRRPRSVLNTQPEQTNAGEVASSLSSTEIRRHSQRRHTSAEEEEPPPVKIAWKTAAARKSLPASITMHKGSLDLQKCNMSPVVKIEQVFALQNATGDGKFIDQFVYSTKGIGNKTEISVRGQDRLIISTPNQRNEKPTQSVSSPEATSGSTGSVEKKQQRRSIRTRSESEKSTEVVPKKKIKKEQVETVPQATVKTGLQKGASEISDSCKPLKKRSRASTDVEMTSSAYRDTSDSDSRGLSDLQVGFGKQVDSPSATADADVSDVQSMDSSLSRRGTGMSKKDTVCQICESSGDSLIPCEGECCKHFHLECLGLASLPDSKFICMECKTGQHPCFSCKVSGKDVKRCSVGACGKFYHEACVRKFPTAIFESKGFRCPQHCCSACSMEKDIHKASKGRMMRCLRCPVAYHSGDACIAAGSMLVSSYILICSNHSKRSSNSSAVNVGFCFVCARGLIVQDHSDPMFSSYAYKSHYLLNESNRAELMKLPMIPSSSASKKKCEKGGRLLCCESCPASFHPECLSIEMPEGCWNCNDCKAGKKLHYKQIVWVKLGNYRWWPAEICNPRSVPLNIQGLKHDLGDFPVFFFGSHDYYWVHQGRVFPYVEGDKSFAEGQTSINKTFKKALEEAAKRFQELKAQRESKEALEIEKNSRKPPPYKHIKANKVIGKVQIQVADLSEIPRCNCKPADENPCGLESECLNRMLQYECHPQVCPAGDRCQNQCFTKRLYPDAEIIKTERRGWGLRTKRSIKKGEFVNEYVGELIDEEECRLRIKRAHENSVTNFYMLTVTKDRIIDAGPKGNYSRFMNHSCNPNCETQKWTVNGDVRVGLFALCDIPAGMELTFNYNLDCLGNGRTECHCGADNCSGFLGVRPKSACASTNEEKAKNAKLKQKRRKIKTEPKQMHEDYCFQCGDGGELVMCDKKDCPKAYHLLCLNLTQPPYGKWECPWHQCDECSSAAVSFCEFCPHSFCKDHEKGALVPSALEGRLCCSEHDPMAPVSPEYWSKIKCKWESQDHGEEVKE
Sequence of Serine/threonine-protein kinase pim-1 (P11309 whole entry, looked up): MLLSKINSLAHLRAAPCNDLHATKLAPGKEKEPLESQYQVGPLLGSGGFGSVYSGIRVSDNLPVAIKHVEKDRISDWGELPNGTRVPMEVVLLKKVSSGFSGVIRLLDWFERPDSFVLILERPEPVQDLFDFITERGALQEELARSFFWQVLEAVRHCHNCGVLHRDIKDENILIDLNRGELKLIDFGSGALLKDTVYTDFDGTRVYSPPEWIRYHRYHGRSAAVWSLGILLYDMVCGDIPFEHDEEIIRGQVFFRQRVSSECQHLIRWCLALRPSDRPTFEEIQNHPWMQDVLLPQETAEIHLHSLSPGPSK
Sequence of Dual specificity tyrosine-phosphorylation-regulated kinase 1B (Q9Y463 whole entry, looked up): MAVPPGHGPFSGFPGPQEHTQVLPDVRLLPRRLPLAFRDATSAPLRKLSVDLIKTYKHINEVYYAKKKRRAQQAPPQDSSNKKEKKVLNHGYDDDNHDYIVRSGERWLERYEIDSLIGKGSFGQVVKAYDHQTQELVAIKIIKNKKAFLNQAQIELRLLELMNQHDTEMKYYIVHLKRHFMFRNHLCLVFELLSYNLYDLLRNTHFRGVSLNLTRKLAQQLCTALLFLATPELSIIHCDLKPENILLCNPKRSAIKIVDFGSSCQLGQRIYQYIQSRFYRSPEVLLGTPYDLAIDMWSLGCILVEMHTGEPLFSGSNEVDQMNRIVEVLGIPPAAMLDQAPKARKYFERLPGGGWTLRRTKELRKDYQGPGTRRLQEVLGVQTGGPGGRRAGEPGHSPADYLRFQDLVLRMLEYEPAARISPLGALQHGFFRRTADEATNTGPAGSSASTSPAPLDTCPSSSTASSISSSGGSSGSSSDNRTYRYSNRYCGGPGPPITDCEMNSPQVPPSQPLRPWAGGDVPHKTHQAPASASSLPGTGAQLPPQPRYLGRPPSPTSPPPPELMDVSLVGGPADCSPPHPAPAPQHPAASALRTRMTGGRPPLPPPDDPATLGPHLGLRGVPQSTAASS
Sequence of Ribosomal protein S6 kinase alpha-3 (Homo sapiens) (P51812 whole entry): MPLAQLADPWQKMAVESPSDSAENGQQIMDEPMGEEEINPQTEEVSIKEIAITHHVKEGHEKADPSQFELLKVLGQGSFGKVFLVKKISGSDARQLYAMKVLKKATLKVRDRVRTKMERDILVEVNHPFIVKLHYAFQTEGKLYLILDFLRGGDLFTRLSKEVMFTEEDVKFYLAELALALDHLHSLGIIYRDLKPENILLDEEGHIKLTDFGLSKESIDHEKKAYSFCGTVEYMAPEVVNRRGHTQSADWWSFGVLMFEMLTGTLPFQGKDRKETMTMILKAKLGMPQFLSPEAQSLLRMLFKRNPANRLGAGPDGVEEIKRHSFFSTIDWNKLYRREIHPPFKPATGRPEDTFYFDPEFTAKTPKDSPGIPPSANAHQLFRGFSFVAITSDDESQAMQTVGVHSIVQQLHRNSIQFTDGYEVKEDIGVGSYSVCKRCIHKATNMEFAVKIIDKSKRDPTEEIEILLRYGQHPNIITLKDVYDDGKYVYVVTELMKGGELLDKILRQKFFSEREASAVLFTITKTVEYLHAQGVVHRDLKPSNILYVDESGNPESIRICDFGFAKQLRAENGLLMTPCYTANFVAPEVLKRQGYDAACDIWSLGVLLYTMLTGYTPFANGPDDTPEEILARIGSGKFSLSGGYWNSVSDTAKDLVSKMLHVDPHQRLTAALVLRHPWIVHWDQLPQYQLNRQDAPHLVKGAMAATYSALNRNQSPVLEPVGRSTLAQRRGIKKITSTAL
Sequence of Tyrosine-protein kinase Fyn (P06241 2-537 limits assumed): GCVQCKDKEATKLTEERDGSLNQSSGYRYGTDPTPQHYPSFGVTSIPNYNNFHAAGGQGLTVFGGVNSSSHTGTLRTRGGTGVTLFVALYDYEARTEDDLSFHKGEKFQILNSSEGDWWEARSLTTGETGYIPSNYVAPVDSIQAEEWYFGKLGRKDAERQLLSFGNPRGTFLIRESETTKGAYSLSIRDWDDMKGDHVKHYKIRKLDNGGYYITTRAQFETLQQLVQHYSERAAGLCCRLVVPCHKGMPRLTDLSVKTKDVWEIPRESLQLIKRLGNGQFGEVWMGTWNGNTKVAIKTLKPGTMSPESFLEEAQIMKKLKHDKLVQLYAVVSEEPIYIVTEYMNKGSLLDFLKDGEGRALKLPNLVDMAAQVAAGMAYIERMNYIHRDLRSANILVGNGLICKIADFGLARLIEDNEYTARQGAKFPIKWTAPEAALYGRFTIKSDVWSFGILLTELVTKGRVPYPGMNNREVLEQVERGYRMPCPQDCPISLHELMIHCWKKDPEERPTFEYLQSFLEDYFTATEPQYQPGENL
Sequence of Protein-tyrosine kinase 6 (Homo sapiens) (Q13882 whole entry, looked up): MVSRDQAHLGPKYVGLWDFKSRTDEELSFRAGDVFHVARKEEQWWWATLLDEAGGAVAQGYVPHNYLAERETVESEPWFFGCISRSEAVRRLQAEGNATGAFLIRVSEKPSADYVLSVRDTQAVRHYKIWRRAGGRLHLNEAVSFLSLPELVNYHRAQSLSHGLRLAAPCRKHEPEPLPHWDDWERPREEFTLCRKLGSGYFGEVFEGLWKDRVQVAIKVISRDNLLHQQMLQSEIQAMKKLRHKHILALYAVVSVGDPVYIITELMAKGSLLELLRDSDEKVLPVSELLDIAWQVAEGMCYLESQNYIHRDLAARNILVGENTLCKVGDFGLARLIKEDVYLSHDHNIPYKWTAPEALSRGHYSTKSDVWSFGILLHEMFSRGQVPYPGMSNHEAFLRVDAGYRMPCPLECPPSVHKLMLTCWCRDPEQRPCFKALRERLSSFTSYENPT

CN([C@@H]1CCc2c(CC(=O)O)c3cc(S(C)(=O)=O)ccc3n2C1)S(=O)(=O)c1ccc(F)cc1
inhibition [1]: 45% | inhibition [2]: 41% | % of control [3]: 6% | % of control [4]: 36%

O=C(NC[C@H](O)CN1CCc2ccccc2C1)c1ccnc(NC2CCC2)c1
% of inhibition [5]: 75%

CC(C)S(=O)(=O)c1ccc2nccc(Nc3ccc4scnc4c3)c2c1
% of inhibition [6]: 12% | % of inhibition [7]: 17% | % of inhibition [8]: 13% | % of inhibition [9]: 18%

C[C@@H](Oc1cc(-n2cnc3ccc(CN4CCN(C)CC4)cc32)sc1C(N)=O)c1ccccc1C(F)(F)F
% of inhibition [10]: 96% | % of inhibition [11]: 92% | % of inhibition [12]: 90% | % of inhibition [13]: 92% | % of inhibition [14]: 92%

Nc1ncnc2c1ccn2[C@@H]1O[C@H]([C@H](O)c2ccccc2)[C@@H](O)[C@H]1O
% activity remaining [15]: 75%
